Measured values: patent publication EP0631503B1, “USE OF VASOACTIVE INTESTINAL PEPTIDE (VIP) TO INDUCE TEMPORARY PARALYSIS OF THE GASTROINTESTINAL TRACT” (KORMAN, Louis Y., priority 1991, dated 2001)
Read-outs that look alike come from different tables or passages of the source.

What was measured:
[1] = Method: During the period of observation, vital signs (blood pressure and pulse) and symptoms were continuously recorded. The protocol was such that if the blood pressure dropped by more than 20 mm Hg systolic or diastolic or the pulse increased by more than 30 beats per minute for 2 minutes, intravenous saline was to be administered and the study terminated.
[2] = tested on: gastroduodenal motility; details: reduction in gastroduodenal motility, dose-dependent; cited from earlier work
[3] = in vivo; cited from earlier work
[4] = tested on: contractions in the antrum; details: doses as high as 2 mg; cited from earlier work
[5] = tested on: antroduodenal activity; details: 1 mg i.v. followed by 2 mg IV over 2 hours; cited from earlier work
[6] = dose dependent side effects; cited from earlier work
[7] = tested on: opossum duodenum; details: cited from earlier work
[8] = first patient, initial dose of 5 ng VIP per kg

Row | Compound | effects on blood pressure and pulse ([1]; first patient, higher dose level (20 ng/kg)) | pulse [1, 8] | systolic pressure [1, 8] | blood pressure ([1]; second patient, 5 and 20 ng/kg of bodyweight) | blood pressure or pulse ([1]; second patient, any of the dosages tested) | blood pressure or pulse ([1]; third patient, any dose of VIP administered) | adverse reactions such as nausea or vomiting ([1]; three patients studied) | minimally effective dose [2] [mg] | colonoscopic evaluation [3] | contractions in the antrum [4] | cycle length and time between contractile activity in the duodenum [5] | mean pressure period [5] | dose at which nausea and vomiting can appear [6] [mg] | effect on duodenum [7]
1 | CC[C@H](C)[C@H](NC(=O)[C@H](CO)NC(=O)[C@H](CC(N)=O)NC(=O)[C@H](CC(C)C)NC(=O)[C@H](Cc1ccc(O)cc1)NC(=O)[C@H](CCCCN)NC(=O)[C@H](CCCCN)NC(=O)[C@@H](NC(=O)[C@H](C)NC(=O)[C@H](CCSC)NC(=O)[C@H](CCC(N)=O)NC(=O)[C@H](CCCCN)NC(=O)[C@H](CCCN=C(N)N)NC(=O)[C@H](CC(C)C)NC(=O)[C@H](CCCN=C(N)N)NC(=O)[C@@H](NC(=O)[C@H](Cc1ccc(O)cc1)NC(=O)[C@H](CC(N)=O)NC(=O)[C@H](CC(=O)O)NC(=O)[C@@H](NC(=O)[C@H](Cc1ccccc1)NC(=O)[C@@H](NC(=O)[C@H](C)NC(=O)[C@H](CC(=O)O)NC(=O)[C@H](CO)NC(=O)[C@@H](N)Cc1c[nH]cn1)C(C)C)[C@@H](C)O)[C@@H](C)O)C(C)C)C(=O)N[C@@H](CC(C)C)C(=O)N[C@@H](CC(N)=O)C(N)=O [VIP, vasoactive intestinal peptide] | not seen | increase | slight decrease | no significant effect | no significant change | no significant change | None of the three patients studied experienced any adverse reactions | – | – | – | – | – | – | –
2 | glucagon | – | – | – | – | – | – | – | 0.5 | does not facilitate | does not reduce contractions | significantly increased | decreased | 1 | stimulated relaxation
